The values that follow come from patent US8163909B2, “Substituted hydroxyethyl amine compounds as beta-secretase modulators and methods of use” (Amgen Inc., priority 2007, dated 2012).

Where two headings read alike, the source gives them in different places.

For one data set, the target named is CYP3A4 (CYP3A) (Homo sapiens, UniProt P08684). As to the kind of experiment: in vitro. To be noted: microsomes, pH 7.4.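 Also: inhibition of CYP3A-mediated 1-hydroxymidazolam formation after 10 min incubation with NADPH, quantified by HPLC MS relative to metabolite produced without test compound.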
Data set [1] is described as follows: Microsomal stability assay, human liver microsomes.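 Also: pooled human liver microsomes at 0.25 mg/mL with 1 µM compound and NADPH at 37 °C, pH 7.4, for 30 min, unchanged parent quantified by LC-MS/MS against the 0 min sample.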 For orientation: Liver microsomes are a subcellular fraction often used to study metabolism.
The target in data set [2] is Beta Secretase enzyme (BACE) (Homo sapiens, UniProt P56817). In words: In vitro enzymatic BACE FRET (fluorescence resonance energy transfer) assay.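 Also: fluorescence read after 1 h with 50 nM quenched peptide substrate spanning the BACE cleavage site, in pH 4.2 acetate buffer containing 10% DMSO and nonionic detergent.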 Type of data set: biochemical.
In data set [3] the test system is Aβ40 in conditioned medium of cells stably expressing Amyloid Precursor Protein (APP). As to the kind of experiment: In vitro BACE cell-based assay (Aβ40 in conditioned medium, sandwich ELISA).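 Also: compounds added as a dilution series, secreted peptide quantified by europium time-resolved fluorescence readout, potency fitted from percent of control versus compound concentration.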 To be noted: Homo sapiens. A general note: An ELISA detects its analyte on a solid surface through an enzyme-linked reagent.
A further data set deals with CYP2D6 (Homo sapiens, UniProt P10635). In words: CYP2D6 inhibition assay (bufuralol, pooled human liver microsomes).
Data set [4] can be described thus: Microsomal stability assay, rat liver microsomes.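 Also: rat liver microsomes (0.25 mg/mL) with about 1 µM compound plus 1 mM NADPH, pH 7.4, 37 °C for 30 min, parent left measured by LC-MS/MS against 0 min.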
Setting [5] is: 2D6 IC50 (uM), CYP enzyme inhibition.
Where [6] appears, read: Table 2, read-out: BACE1 FRET assay.
[7] abbreviates: HEK293, Table 2, HEK cells, read-out: HEK cell assay.
Setting [8] is: 2D6 IC50, CYP enzyme inhibition.
The mark [9] stands for this setting: read-out: BACE1 FRET assay (IC50).
Setting [10] is: HEK293, HEK cells, read-out: HEK cell assay (IC50).
Setting [11] is: BACE enzyme assay, read-out: BACE1 FRET assay.
Where [12] appears, read: HEK293, HEK cells, read-out: HEK cell assay.

Sequence of Beta Secretase enzyme (BACE) (P56817 46-501): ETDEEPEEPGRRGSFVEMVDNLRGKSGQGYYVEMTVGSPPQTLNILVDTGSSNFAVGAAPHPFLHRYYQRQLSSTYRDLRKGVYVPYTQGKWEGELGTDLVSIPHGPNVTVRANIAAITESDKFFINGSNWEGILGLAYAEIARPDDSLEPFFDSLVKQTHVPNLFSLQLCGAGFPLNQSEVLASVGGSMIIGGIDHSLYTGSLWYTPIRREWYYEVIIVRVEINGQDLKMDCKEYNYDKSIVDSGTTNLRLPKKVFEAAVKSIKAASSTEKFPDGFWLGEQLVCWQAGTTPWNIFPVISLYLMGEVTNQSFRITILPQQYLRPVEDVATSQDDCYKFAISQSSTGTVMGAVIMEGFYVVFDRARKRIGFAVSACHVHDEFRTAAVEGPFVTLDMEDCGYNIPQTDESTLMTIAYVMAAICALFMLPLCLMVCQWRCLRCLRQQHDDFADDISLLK
Sequence of CYP3A4 (CYP3A) (P08684 2-503): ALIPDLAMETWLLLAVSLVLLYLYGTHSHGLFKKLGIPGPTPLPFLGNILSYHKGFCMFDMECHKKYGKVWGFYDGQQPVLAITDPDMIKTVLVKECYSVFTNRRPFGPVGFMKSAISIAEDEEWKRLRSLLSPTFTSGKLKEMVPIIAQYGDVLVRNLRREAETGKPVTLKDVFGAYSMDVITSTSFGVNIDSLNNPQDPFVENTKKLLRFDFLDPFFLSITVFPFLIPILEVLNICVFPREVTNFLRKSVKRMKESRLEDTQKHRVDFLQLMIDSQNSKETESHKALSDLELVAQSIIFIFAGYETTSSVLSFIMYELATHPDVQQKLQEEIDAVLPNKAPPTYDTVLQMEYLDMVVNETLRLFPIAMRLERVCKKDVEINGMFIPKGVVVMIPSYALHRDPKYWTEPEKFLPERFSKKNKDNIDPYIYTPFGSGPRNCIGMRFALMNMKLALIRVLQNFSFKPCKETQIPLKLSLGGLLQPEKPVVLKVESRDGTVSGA
Sequence of CYP2D6 (P10635 whole entry): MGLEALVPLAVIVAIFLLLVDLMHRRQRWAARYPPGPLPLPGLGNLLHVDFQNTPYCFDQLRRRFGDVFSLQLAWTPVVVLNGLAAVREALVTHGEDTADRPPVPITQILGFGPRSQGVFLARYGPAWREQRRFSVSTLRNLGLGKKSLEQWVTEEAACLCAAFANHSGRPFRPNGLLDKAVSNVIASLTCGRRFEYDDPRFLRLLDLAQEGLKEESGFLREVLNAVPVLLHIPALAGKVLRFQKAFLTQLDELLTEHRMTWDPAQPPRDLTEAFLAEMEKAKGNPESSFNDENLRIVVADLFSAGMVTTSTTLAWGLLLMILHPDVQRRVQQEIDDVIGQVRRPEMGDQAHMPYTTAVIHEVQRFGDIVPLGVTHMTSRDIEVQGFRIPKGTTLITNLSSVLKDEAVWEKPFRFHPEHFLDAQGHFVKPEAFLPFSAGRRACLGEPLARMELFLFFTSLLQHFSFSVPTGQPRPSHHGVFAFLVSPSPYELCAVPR

`COCC(=O)N[C@@H](Cc1cccc(-c2ncco2)c1)[C@H](O)CN[C@H]1CC2(CCC2)Oc2ncc(CC(C)C)cc21` [compound 804, N-((1S,2R)-2-hydroxy-3-(((4′S)-6′-(2-methylpropyl)-3′,4′-dihydrospiro[cyclobutane-1,2′-pyrano[2,3-b]pyridin]-4′-yl)amino)-1-(3-(1,3-oxazol-2-yl)benzyl)propyl)-2-methoxyacetamide]: the IC50 came to 200 nM at CYP3A4 (CYP3A); 0.009 µM in data set [2] (BACE enzyme assay, IC50's in uM, read-out: BACE1 FRET assay); 0.03 µM in data set [3] (HEK293, HEK cell-based assay, IC50's in uM, read-out: HEK cell assay); 2.5 µM against CYP2D6 (setting [5]). Also, the “HLM” value in data set [1] (human liver microsomal data) was 61 µL/min/mg. Further, the “RLM” value in data set [4] (rat liver microsomal data) was determined as 43 µL/min/mg.

`COCC(=O)N[C@@H](Cc1ccc(F)cc1)[C@H](O)CN[C@H]1CC2(CCC2)Oc2nc(C)c(CC(C)(C)C)cc21` [compound 468]: the IC50 at CYP3A4 (CYP3A) amounted to 500 nM; in data set [2] (setting [6]) it was 0.097 µM; in data set [3] (setting [7]), 0.108 µM; against CYP2D6 (setting [8]) it was 9.6 µM. Further, in data set [1] (human liver microsomal data), the HLM worked out at 736 µL/min/mg. This compound also came in with an RLM in data set [4] (rat liver microsomal data) of 662 µL/min/mg.

With `COCC(=O)N[C@@H](Cc1cc(F)cc(-c2ccncc2)c1)[C@H](O)CN[C@H]1CC2(CCC2)Oc2ncc(CC(C)(C)C)cc21` [compound 613], the IC50 against CYP3A4 (CYP3A) worked out at 160 nM; in data set [2] (setting [9]), 0.02 µM; in data set [3] (setting [10]) it was 0.011 µM; against CYP2D6 (2D6 IC50, CYP2D6 inhibition), 0.3 µM. This compound also showed an HLM in data set [1] (human liver microsomes) of 228 µL/min/mg. In addition, the RLM in data set [4] (rat liver microsomes) turned out to be 142 µL/min/mg.

Take `CC(=O)N[C@@H](Cc1cccc(C#N)c1)[C@H](O)CN[C@H]1CC2(CCC2)Oc2c(-c3ccncc3)cc(CC(C)(C)C)cc21` [compound 637]: the IC50 stood at 100 nM against CYP3A4 (CYP3A); 0.01 µM in data set [2] (setting [9]); 0.004 µM in data set [3] (setting [10]); 2.8 µM against CYP2D6 (2D6 IC50, CYP2D6 inhibition). The HLM in data set [1] (human liver microsomes) was determined as 34 µL/min/mg. This compound yielded an RLM in data set [4] (rat liver microsomes) of 105 µL/min/mg.

Take `CC(C)OCC(=O)N[C@@H](Cc1ccc(F)cc1)[C@H](O)CN[C@H]1CC2(CCC2)Oc2ncc(CC(C)(C)C)cc21` [compound 565]: the IC50 against CYP3A4 (CYP3A) stood at 600 nM; in data set [2] (setting [11]) it was 0.049 µM; in data set [3] (setting [12]), 0.267 µM; at CYP2D6 (setting [5]), 23.8 µM. Moreover, in data set [1] (human liver microsomal data), the “HLM” value was 921 µL/min/mg. The “RLM” value in data set [4] (rat liver microsomal data) came out at 829 µL/min/mg.

`CO[C@H](C)C(=O)N[C@@H](Cc1cc(F)cc(F)c1)[C@H](O)CN[C@H]1CC2(CCC2)Oc2c(-c3nccs3)cc(CC(C)C)cc21` [compound 459]: the IC50 on CYP3A4 (CYP3A) is 400 nM; in data set [2] (setting [6]) it was 0.004 µM; in data set [3] (setting [7]), 0.046 µM; against CYP2D6 (setting [8]) it was 10.2 µM. The HLM in data set [1] (human liver microsomal data) was found to be 399 µL/min/mg. Besides, in data set [4] (rat liver microsomal data), the RLM came out at 399 µL/min/mg.

As for `COCC(=O)N[C@@H](Cc1ccc2c(c1)OCO2)[C@H](O)CN[C@H]1CC2(CCC2)Oc2ncc([C@H]3CC3(C)C)cc21` [compound 576], the IC50 on CYP3A4 (CYP3A) came out at 100 nM; in data set [2] (setting [9]), 0.328 µM; in data set [3] (setting [10]), 0.249 µM; against CYP2D6 (2D6 IC50, CYP2D6 inhibition), 2.7 µM. Also, the HLM in data set [1] (human liver microsomes) came out at 31 µL/min/mg. Moreover, the RLM in data set [4] (rat liver microsomes) worked out at 209 µL/min/mg.

As to `COCC(=O)N[C@@H](Cc1cc(F)cc(F)c1)[C@H](O)CN[C@H]1CC2(CCC2)Oc2c(-c3cccnc3)cc(CC(C)(C)C)cc21` [compound 489], the IC50 was determined as 400 nM at CYP3A4 (CYP3A), 0.007 µM in data set [2] (setting [11]), 0.02 µM in data set [3] (setting [12]) and 3.9 µM against CYP2D6 (setting [5]). Besides, the “HLM” value in data set [1] (human liver microsomal data) turned out to be 399 µL/min/mg. Also, the “RLM” value in data set [4] (rat liver microsomal data) was 775 µL/min/mg.
